Experimental data taken from patent US20180036332A1 (Chongqing Institute of Bench-to Bed Bioengineering …, priority 2015, published 2018).

Assays:
[1] = test system: primary endothelial cells HUVEC; assay: MTT cell viability assay of primary endothelial cells HUVEC in low glucose and hypoxia environment; format: cell-based; details: 48 hours
[2] = parameters: species or system rats; details: rat, in vivo

Nicotinamide adenine dinucleotide phosphate [NADPH]
survival rate of HUVEC cells ([1]; 5 μM NADPH, p<0.05): around 65.3%
survival rate of HUVEC cells ([1]; 10 μM NADPH, p<0.01): around 73.6%
survival rate of HUVEC cells ([1]; 20 μM NADPH, p<0.01): around 70.9%
range of myocardial infarction (weight % of ischemic infarct zone in total ischemic myocardial zone) [2]: significantly reduces the range of myocardial infarction
